This is an account of results in patent US20090274655A1, “2-CARBOXY THIOPHENE DERIVATIVES AS ANTI VIRAL AGENTS” (priority 2006, published 2009).

Experiment [1] concerns sub-genomic HCV NS3-NS5B replicon of genotype 1b (ET subline) in Huh-7 cells. The experiment is described as follows: 1b luciferase replicon assay (replicon luciferase cell based assay). Also noted: species or system HCV genotype 1b. Conditions: Hepatitis C virus, Huh-7, 48 h, read-out: IC50 in the 1b luciferase replicon assay. As for the experimental part:
(§1) Replicon Luciferase Cell Based Assay
(§2) A 40 mM stock solution in DMSO of each test compound was further diluted into 50 μL of DMSO in the first row of a 96 well, V-bottom microplate, to give 100 times the top concentration of the required dilution series. Aliquots of 25 μL of DMSO were added to each well of the remaining rows, and doubling dilutions of compound were prepared by the serial transfer of 25 μL volumes from the first row onwards. A PlateMate™ robot was used to transfer 1 μL volumes from each dilution well into duplicate wells of a clear bottom, black walled, 96 well assay plate (COSTAR #3603). Control wells received 1 μL of DMSO alone. […]
(§3) One tablet of Resazurin (Fisher #R/0040/79) was dissolved in 50 mL of phosphate buffered saline and 100 μL of solution added to all wells. The plate was re-incubated at 37° C. for a further 2-4 hours, wrapped in aluminium foil, before reading in a FLUOStar Optima at 595 nm. […] The plate was then read for luminescence on a TopCount® NXT™.
(§4) Potency: The luminescence values from all compound-free wells containing cells were averaged to obtain a positive control value. The mean luminescence value from the compound-free wells that had received no cells was used to provide the negative (background) control value. […] The quantifiable and specific reduction of luciferase signal in the presence of a drug is a direct measure of replicon inhibition. […]

The test system of experiment [2] is sub-genomic HCV NS3-NS5B replicon of genotype 1a (subline 1.19) in Huh-7 cells. Description: 1a luciferase replicon assay (replicon luciferase cell based assay). Set-up: species or system HCV genotype 1a. Conditions: Hepatitis C virus, genotype 1a replicon, firefly luciferase reporter, 48 hours. On the procedure:
as §1, §2, §3, §4

pIC50: −log10 of the molar value.

For the molecule `CC(C)N(c1cc(-c2ccc(NC(=O)c3cscn3)cc2)sc1C(=O)O)C(=O)[C@H]1CC[C@H](C)CC1` [Example 1, 3-[[(trans-4-Methylcyclohexyl)carbonyl](1-methylethyl)amino]-5-{4-[(1,3-thiazol-4-ylcarbonyl)amino]phenyl}-2-thiophenecarboxylic acid], the negative logarithm of the IC50 (pIC50) in experiment [1] and in experiment [2] was over 7.00 throughout.
